# Test results: patent US20110172296A1, “MODULATION OF TRANSFORMING GROWTH FACTOR-BETA 1 EXPRESSION” (priority 2010, published 2011)
# “And” between values parts separate entries of the source, which are not always exact repeats. Equal entries are not always repeated. In the oligonucleotide strings, read from the 5' end, every base follows the letter of its sugar. An asterisk marks phosphorothioate; unmarked linkages are phosphodiester. Other units and linkages are bracketed, terminal groups are in braces. A string of capitals states the bases alone. e = 2'-O-(2-methoxyethyl) (MOE); [5mC] = 5-methylcytosine; d = 2'-deoxy (DNA)
# What was measured:
# [1] = test system: BALB/c mice; assay: Tolerability in BALB/c mice: liver, kidney and spleen weights (Example 8); format: in vivo, mouse
# Procedure: The mice were sacrificed 2 days after the last administration and liver, spleen and kidney weights were measured. Plasma transaminase levels were also evaluated.
# The weights of liver, kidney and spleen of the mice were measured after 4 weeks and liver weights are presented in Table 10 as a percentage change compared to the corresponding weights in the PBS control. The percentage changes in kidney and spleen weight in the treated mice compared to the PBS control were negligible and are not shown.
# [2] = test system: human TGF-beta1 mRNA; assay: Antisense inhibition of human TGF-beta1 mRNA in HuVEC cells, single 10 nM dose, Lipofectamine 2000 (Example 2); format: cell-based; conditions: for % inhibition: 10 nM oligonucleotide, HuVEC, relative to untreated control cells, gapmers targeted to SEQ ID NO: 1; for inhibition of a TGF-beta1 mRNA: threshold lists of Oligo IDs, 10 nM
# Outline: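 Percent inhibition relative to untreated controls, from qRT-PCR of mRNA corrected for total RNA (RIBOGREEN). Cells were exposed 4 h to 10 nM phosphorothioate 2-13-5 MOE gapmers with Lipofectamine 2000 at 5,000 cells/well. RNA was harvested after roughly 24 h recovery.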
# [3] = test system: human TGF-beta1 mRNA; assay: Dose-dependent antisense inhibition of human TGF-beta1 in HuVEC cells, Lipofectamine 2000, 0.9375-30 nM (Example 3); format: cell-based; conditions: for percent inhibition of TGF-beta1: Lipofectamine 2000
# Procedure: Cells were plated at a density of 5,000 cells per well and transfected using Lipofectamine™ 2000 reagent with 0.9375 nM, 1.875 nM, 3.75 nM, 7.5 nM, 15 nM, and 30 nM concentrations of antisense oligonucleotide for 4 hours, as specified in Table 3. After a recovery period of approximately 16 hours, RNA was isolated from the cells and TGF-beta1 mRNA levels were measured by quantitative real-time PCR. Human TGF-beta1 primer probe set RTS 2980 (forward sequence CTCTCCGACCTGCCACAGA, SEQ ID NO: 160; reverse sequence […], SEQ ID NO: 53; probe sequence CCCTATTCAAGACCACCCACCTTCTGGTX, SEQ ID NO: 161) was used to measure mRNA levels. TGF-beta1 mRNA levels were adjusted according to total RNA content, as measured by RIBOGREEN®. Results are presented as percent inhibition of TGF-beta1, relative to untreated control cells.
# [4] = test system: bleomycin-induced skin fibrosis in C57BL/6 mice; assay: Bleomycin-induced murine model of skin fibrosis: skin thickness and breaking strength (Example 10); format: in vivo, mouse; conditions: bleomycin-treated mice
# Procedure: The ability of a TGF-beta1 ASO to reduce the induction of skin fibrosis in a bleomycin-induced model of dermal fibrosis was evaluated.
# Two groups of 8 C57BL/6 mice each were treated with bleomycin every other day for 19 days. Bleomycin, at a concentration of 10 mg/mL in PBS and at a volume of 0.1 mL, was injected subcutaneously into the shaved backs of the mice. The injection site was divided into 4 quadrants. The 100 μL volume of bleomycin was divided into four 25 μL aliquots injected at 90 degree intervals, to the upper left, upper right, lower left, and lower right “quadrants”.
# Each of the two groups was treated intradermally with PBS (vehicle) or a 5 mg dose of a TGF-beta1 antisense oligonucleotide (Oligo ID 433849) twice a week, starting from day 1 of bleomycin administration. Animals were sacrificed on Day 18 of the study. Skin thickness was measured by skin calipers on 6-mm punch biopsy specimens obtained from the upper back of the mice. Breaking strength of the skin was measured on the 6-mm punch biopsy specimens using a tensiometer (Series EG2 digital force gauge; Mark-10, Copiague, N.Y.), and the point of maximal stress before tearing of the biopsy specimen was recorded. All measurements were undertaken in a blinded manner.
# [5] = test system: human TGF-beta1 mRNA; assay: Dose-dependent confirmation of antisense inhibition of human TGF-beta1 in HuVEC cells, electroporation (Example 6); format: cell-based
# Procedure: The gapmers from Example 5 (see Table 5) were also tested at various doses in HuVEC cells using electroporation as the transfection reagent. Cells were plated at a density of 20,000 cells per well and transfected using electroporation with 0.15625 nM, 0.3125 nM, 0.625 nM, 1.25 nM, 2.5 nM, 5 nM, 10 nM, and 20 nM concentrations of antisense oligonucleotide for 4 hours, as specified in Table 6. After a recovery period of approximately 16 hours, RNA was isolated from the cells and TGF-beta1 mRNA levels were measured by quantitative real-time PCR. TGF-beta1 mRNA levels were adjusted according to total RNA content, as measured by RIBOGREEN®. Results are presented as percent inhibition of TGF-beta1, relative to untreated control cells.
# [6] = test system: human TGF-beta1 mRNA; assay: Dose-dependent confirmation of antisense inhibition of human TGF-beta1 in HuVEC cells after large-scale synthesis, Lipofectamine 2000, 0.007-15 nM (Example 5); format: cell-based; conditions: for percent inhibition of TGF-beta1: Lipofectamine 2000
# Procedure: Cells were plated at a density of 5,000 cells per well and transfected using Lipofectamine™ 2000 reagent with 0.007 nM, 0.021 nM, 0.062 nM, 0.185 nM, 0.556 nM, 1.667 nM, 5 nM, and 15 nM concentrations of antisense oligonucleotide for 4 hours, as specified in Table 5. After a recovery period of approximately 16 hours, RNA was isolated from the cells and TGF-beta1 mRNA levels were measured by quantitative real-time PCR. Human TGF-beta1 primer probe set RTS 2980 was used to measure mRNA levels. TGF-beta1 mRNA levels were adjusted according to total RNA content, as measured by RIBOGREEN®. Results are presented as percent inhibition of TGF-beta1, relative to untreated control cells.
# [7] = test system: BALB/c mice; assay: Tolerability in BALB/c mice: plasma transaminases ALT and AST (Example 7); conditions: for aspartate transaminase levels: plasma
# Procedure: These gapmer oligonucleotides were designed to target human TGF-beta1 and have varying degrees of mismatch with murine TGF-beta1 sequence, as shown in Table 1. Oligo ID Nos. 413982 and 414040 have greater than 3 mismatches to the murine TGF-beta1 sequence. Oligo ID No. 414035 has 2 mismatches to murine TGF-beta1. Oligo ID No. 414036 has no mismatches to murine TGF-beta1.
# BALB/c mice were injected with 25 mg/kg or 50 mg/kg of Oligo ID Nos. 413982, 414035, 414036, or 414040 twice a week for 4 weeks. A control group of mice was injected with phosphate buffered saline (PBS) twice a week for 4 weeks. Plasma transaminase levels were evaluated bi-weekly.
# To evaluate the impact of TGF-beta1 antisense oligonucleotides on the hepatic function of mice described above, plasma concentrations of transaminases were measured using an automated clinical chemistry analyzer (Hitachi Olympus AU400e, Melville, N.Y.).
# [8] = test system: human TGF-beta1 mRNA; assay: Dose-dependent antisense inhibition of human TGF-beta1 in HuVEC cells, Lipofectamine 2000, 0.3292-80 nM, comparison with oligos of U.S. Pat. No. 6,436,909 (Example 4); format: cell-based
# Procedure: The dose-dependent antisense inhibition potential of these gapmers was compared with that of Oligo IDs 104992 and 1138498 from U.S. Pat. No. 6,436,909. Cells were plated at a density of 5,000 cells per well and transfected using Lipofectamine™ 2000 reagent with 0.3292 nM, 0.9877 nM, 2.963 nM, 8.8889 nM, 26.6667 nM, and 80 nM concentrations of antisense oligonucleotide for 4 hours, as specified in Table 4. After a recovery period of approximately 16 hours, RNA was isolated from the cells and TGF-beta1 mRNA levels were measured by quantitative real-time PCR. Human TGF-beta1 primer probe set RTS 2980 was used to measure mRNA levels. TGF-beta1 mRNA levels were adjusted according to total RNA content, as measured by RIBOGREEN®. Results are presented as percent inhibition of TGF-beta1, relative to untreated control cells. […] All the antisense oligonucleotides in Table 4 target human TGF-beta1 mRNA (SEQ ID NO: 1).
substance,measurement,setting,value
105204 (antisense GTCCACCATTAGCACGCGGG; chemistry not given here) [compound 105204],Liver % Weight change relative to PBS control,[1]; 25 mg/kg twice a week for 4 weeks,+28%
same,Liver % Weight change relative to PBS control,[1]; 50 mg/kg twice a week for 4 weeks,+73%
same,increase in liver weight,"[1]; 25 or 50 mg/kg twice a week for 4 weeks, vs PBS control",> 70%
413970 (antisense eG*e[5mC]*d[5mC]*dT*d[5mC]*dA*dG*dG*d[5mC]*dT*dG*d[5mC]*dT*d[5mC]*d[5mC]*eT*e[5mC]*eG*eG*e[5mC]) [compound 413970],% inhibition,[2],87%
same,inhibition of a TGF-beta1 mRNA,[2],60% and 65% and 70% and 75% and 80% and 85%
same,percent inhibition of TGF-beta1,[3]; 0.9375 nM,48%
same,percent inhibition of TGF-beta1,[3]; 1.875 nM,64%
same,percent inhibition of TGF-beta1,[3]; 3.75 nM,81%
same,percent inhibition of TGF-beta1,[3]; 7.5 nM,91%
same,percent inhibition of TGF-beta1,[3]; 15 nM,94%
same,percent inhibition of TGF-beta1,[3]; 30 nM,95%
414022 (antisense eG*eG*dG*d[5mC]*dT*d[5mC]*d[5mC]*dG*dG*dT*dT*d[5mC]*dT*dG*d[5mC]*eA*e[5mC]*eT*e[5mC]*eT) [compound 414022],% inhibition,[2],84%
same,inhibition of a TGF-beta1 mRNA,[2],60% and 65% and 70% and 75% and 80%
same,percent inhibition of TGF-beta1,[3]; 0.9375 nM,31%
same,percent inhibition of TGF-beta1,[3]; 1.875 nM,50%
same,percent inhibition of TGF-beta1,[3]; 3.75 nM,76%
same,percent inhibition of TGF-beta1,[3]; 7.5 nM,85%
same,percent inhibition of TGF-beta1,[3]; 15 nM,91%
same,percent inhibition of TGF-beta1,[3]; 30 nM,92%
same,IC50,"[3]; Lipofectamine 2000, Example 3",1670 pM
bleomycin [reference compound],skin thickness,[4]; from 30 mm,40-45 mm
same,breaking strength of skin,[4]; untreated skin typically 0.2 kg tension,approximately 0.47 kg
413979 (antisense eG*eG*d[5mC]*dT*d[5mC]*d[5mC]*d[5mC]*dA*dG*d[5mC]*dG*dG*d[5mC]*dA*dA*e[5mC]*eG*eG*eA*eA) [compound 413979],% inhibition,[2],87%
same,inhibition of a TGF-beta1 mRNA,[2],60% and 65% and 70% and 75% and 80% and 85%
same,percent inhibition of TGF-beta1,[3]; 0.9375 nM,42%
same,percent inhibition of TGF-beta1,[3]; 1.875 nM,62%
same,percent inhibition of TGF-beta1,[3]; 3.75 nM,80%
same,percent inhibition of TGF-beta1,[3]; 7.5 nM,92%
same,percent inhibition of TGF-beta1,[3]; 15 nM,95%
same,percent inhibition of TGF-beta1,[3]; 30 nM,94%
414040 (antisense e[5mC]*eT*d[5mC]*dT*d[5mC]*dT*d[5mC]*d[5mC]*dA*dT*d[5mC]*dT*dT*dT*dA*eA*eT*eG*eG*eG) [compound 414040],percent inhibition of TGF-beta1 mRNA relative to untreated control cells,[5]; 0.15625 nM oligonucleotide,57%
same,percent inhibition of TGF-beta1 mRNA relative to untreated control cells,[5]; 0.3125 nM oligonucleotide,68%
same,percent inhibition of TGF-beta1 mRNA relative to untreated control cells,[5]; 0.625 nM oligonucleotide,81%
same,percent inhibition of TGF-beta1 mRNA relative to untreated control cells,[5]; 1.25 nM oligonucleotide,91%
same,percent inhibition of TGF-beta1 mRNA relative to untreated control cells,[5]; 2.5 nM oligonucleotide,93%
same,percent inhibition of TGF-beta1 mRNA relative to untreated control cells,[5]; 5.00 nM oligonucleotide,95%
same,percent inhibition of TGF-beta1 mRNA relative to untreated control cells,[5]; 10.00 nM oligonucleotide,94%
same,percent inhibition of TGF-beta1 mRNA relative to untreated control cells,[5]; 20 nM oligonucleotide,94%
same,% inhibition,[2],90%
same,inhibition of a TGF-beta1 mRNA,[2],60% and 65% and 70% and 75% and 80% and 85% and 90%
same,percent inhibition of TGF-beta1,[3]; 0.9375 nM,72%
same,percent inhibition of TGF-beta1,[3]; 1.875 nM,83%
same,percent inhibition of TGF-beta1,[3]; 3.75 nM,90%
same,percent inhibition of TGF-beta1,[3]; 7.5 nM,94%
same,percent inhibition of TGF-beta1,[3]; 15 nM,95%
same,percent inhibition of TGF-beta1,[3]; 30 nM,95%
same,percent inhibition of TGF-beta1,[6]; 0.007 nM,19%
same,percent inhibition of TGF-beta1,[6]; 0.021 nM,45%
same,percent inhibition of TGF-beta1,[6]; 0.062 nM,58%
same,percent inhibition of TGF-beta1,[6]; 0.185 nM,76%
same,percent inhibition of TGF-beta1,[6]; 0.556 nM,83%
same,percent inhibition of TGF-beta1,[6]; 1.667 nM,89%
same,percent inhibition of TGF-beta1,[6]; 5 nM,92%
same,percent inhibition of TGF-beta1,[6]; 15 nM,93%
same,IC50,"[6]; Lipofectamine 2000, Example 5",40 pM
same,alanine transaminase levels,"[7]; 25 mg/kg twice a week, Week 2",178 IU/L
same,alanine transaminase levels,"[7]; 25 mg/kg twice a week, Week 4",2248 IU/L
same,aspartate transaminase levels,"[7]; 25 mg/kg twice a week, Week 2",128 IU/L
same,aspartate transaminase levels,"[7]; 25 mg/kg twice a week, Week 4",1405 IU/L
same,alanine transaminase levels,"[7]; 50 mg/kg twice a week, Week 2",837 IU/L
same,alanine transaminase levels,"[7]; 50 mg/kg twice a week, Week 4",4997 IU/L
same,aspartate transaminase levels,"[7]; 50 mg/kg twice a week, Week 2",529 IU/L
same,aspartate transaminase levels,"[7]; 50 mg/kg twice a week, Week 4",2237 IU/L
same,increase in ALT levels,[7]; compared to placebo (PBS) controls,> 160 fold and 166 fold
same,percent inhibition of TGF-beta1,[8]; 0.3292 nM,85%
same,percent inhibition of TGF-beta1,[8]; 0.9877 nM,90%
same,percent inhibition of TGF-beta1,[8]; 2.963 nM,94%
same,percent inhibition of TGF-beta1,[8]; 8.8889 nM,94%
same,percent inhibition of TGF-beta1,[8]; 26.6667 nM,94%
same,percent inhibition of TGF-beta1,[8]; 80.0 nM,93%
